Data as given in patent US6235759A, “Dihydropyridinones and pyrrolinones useful as alpha 1A adrenoceptor antagonists” (Merck & Co., Inc., priority 1999, dated 2001).

Assays:
[1] = biological target: T1, human alpha 1a adrenergic receptor (Homo sapiens, UniProt P35348); experiment: Screening Assay: Alpha 1a Adrenergic Receptor Binding ([125I]-HEAT competition)
T1 construct: expressed in transfected cells; host or cells: stably transfected human alpha 1a cell line (ATCC CRL 11140)
T1 sequence (P35348 1-466): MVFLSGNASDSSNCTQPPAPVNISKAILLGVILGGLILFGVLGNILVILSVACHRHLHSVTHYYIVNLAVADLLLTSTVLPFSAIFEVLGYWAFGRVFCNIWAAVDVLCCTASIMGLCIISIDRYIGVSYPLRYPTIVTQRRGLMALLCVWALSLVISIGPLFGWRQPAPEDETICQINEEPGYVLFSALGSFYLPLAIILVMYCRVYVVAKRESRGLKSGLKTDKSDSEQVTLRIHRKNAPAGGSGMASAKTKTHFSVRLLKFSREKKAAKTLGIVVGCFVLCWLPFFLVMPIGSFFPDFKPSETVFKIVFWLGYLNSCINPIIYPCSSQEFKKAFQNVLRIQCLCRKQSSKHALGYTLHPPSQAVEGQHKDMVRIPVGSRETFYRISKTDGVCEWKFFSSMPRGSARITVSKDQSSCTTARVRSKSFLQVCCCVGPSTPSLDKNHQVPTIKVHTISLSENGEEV
Protocol: Screening Assay: Alpha 1a Adrenergic Receptor Binding
Membranes prepared from the stably transfected human alpha 1a cell line (ATCC CRL 11140) were used to identify compounds that bind to the human alpha 1a adrenergic receptor. These competition binding reactions (total volume=200 μl) contained 50 mM Tris-HCl pH. 7.4, 5 mM EDTA, 150 mM NaCl, 100 pM [^125 I]-HEAT, membranes prepared from the alpha 1a cell line and increasing amounts of unlabeled ligand. Reactions were incubated at room temperature for one hour with shaking. Reactions were filtered onto Whatman GF/C glass fiber filters with a Inotec 96 well cell harvester. Filters were washed three times with ice cold buffer and bound radioactivity was determined (Ki).

[2] = system: human alpha 1b adrenergic receptor; experiment: Selective Binding Assay, alpha 1b ([125I]-HEAT competition); conditions: alpha 1a versus alpha 1b
Protocol: Membranes prepared from stably transfected human alpha 1d and alpha 1b cell lines (ATCC CRL 11138 and CRL 11139, respectively) were used to identify compounds that selectively bind to the human alpha 1a adrenergic receptor. These competition binding reactions (total volume=200 μl) contained 50 mM Tris-HCl pH. 7.4, 5 mM EDTA, 150 mM NaCl, 100 pM [^125 I]-HEAT, membranes prepared from cell lines transfected with the respective alpha 1 subtype expression plasmid and increasing amounts of unlabeled ligand. Reactions were incubated at room temperature for one hour with shaking. Reactions were filtered onto Whatman GF/C glass fiber filters with a Inotec 96 well cell harvester. Filters were washed three times with ice cold buffer and bound radioactivity was determined (Ki).

Row | alpha 1 antagonist activity of the (S) enantiomer relative to the (R) enantiomer ([1]; enantiomer comparison, in words, test not specified) | SMILES | Ki ([1]; human alpha 1a cell line membranes, 100 pM [125I]-HEAT, room temperature, one hour) [nM] | selectivity in binding to alpha 1a receptors versus alpha 1b [2]
1 | – | CC1=C(C(=O)NCCCN2CCC(C#N)(c3ccccn3)CC2)[C@@H](c2ccc(F)c(F)c2)CC(=O)N1C [Example 17, 4-(R)-(3 ,4-Difluorophenyl)-1,6-dimethyl-3,4-dihydro-2-pyridinone-5-carboxylic acid{3-[4-(2-pyridyl)-4-cyano-piperidine-1-yl]-propyl}amide] | 257 | about 8 fold
2 | less active | CC1=C(C(=O)NCCCN2CCC(c3ccc(F)cc3)CC2)[C@H](c2ccc(F)c(F)c2)CC(=O)N1 [Example 18 (S enantiomer), 4-(S)-(3,4-difluorophenyl)-6-methyl-3,4-dihydro-2-pyridinone-5-carboxylic acid{3-[4-(4-fluorophenyl)-piperidine-1-yl]-propyl}amide] | – | –
